Experimental data: patent US5420335A, “Parenteral nutrients based on watersoluble glycerol bisacetoacetates” (priority 1993, dated 1995)

Key:
[1] = in words; cited from earlier work
[2] = Overall evaluation as a parenteral nutrient; type: in vivo, rat (male Sprague-Dawley); conditions: in words
Description: Water was available ad libitum at all times.
The vein was then ligated dorsally to the catheter. […] Body weights were measured daily.
Infusate volume, oral food intake, body weight and urinary volume and total nitrogen were monitored daily for each rat. Infusate volume and food intake were determined by weighing the appropriate container at the start and end of each 24 hr. period. Measurements were recorded between 9 and 10 AM each day. At the end of the 7th day, rats were sacrificed, and blood and liver were harvested. Plasma was separated for measurement of free fatty acids, glucose, and ketone bodies. Liver was weighed and a sample was fixed in buffered formalin for gross histology.
The data were analyzed for significance by the one-way analysis of variance with repeated measures and comparing the effect of dietary treatment on each day. […] The null hypothesis was concluded invalid if p≤0.05. The analysis of variance was computed on a SAS statistical package.

Compound | enhance the absorption of certain agents in the intestine [1] | efficacy as parenteral nutrient / energy source [2]
CC(=O)CC(=O)OCC1COC(C)(C)O1 (stereo not shown) [1,2-isopropylideneglyceryl 3-acetoacetate] | enhance the absorption of certain agents in the intestine | –
CC(=O)CC(=O)OCC(O)COC(=O)CC(C)=O [1,3-bisacetoacetylglycerol] | enhance the absorption of certain agents in the intestine | –
CC(=O)OCC1COC(C)(C)O1 (stereo not shown) [2,3-isopropylidene-1-acetate] | enhance the absorption of certain agents in the intestine | –
Partially Reduced Pentaacetoacetyl-glucose [Compound 3] | – | ineffective as parenteral nutrients
